# Experiments:
# [1] = Population PK (popPK) model of migalastat in adults (NONMEM, bootstrap); parameters: species or system human; conditions: for Typical V2/F, Estimate (% RSE): Fabry disease; for Typical V2/F, Estimate (% RSE) / Typical Q/F, Estimate (% RSE) / Typical V3/F, Estimate (% RSE): body weight ≥ 70 kg
# Experimental: A population pharmacokinetics (popPK) model previously developed from healthy adult volunteers and adult patients with Fabry disease after oral migalastat administration. After pooling plasma concentration-time data from Phase I, II, and III studies of AT1001 administered orally in adults using a range of doses from 25 mg to 675 mg and regimens under fasting conditions. […] In contrast, other covariates such as sex, age, drug formulation (solution or suspension vs 25 mg capsule vs 150 mg capsule) were not statistically/clinically significant. Since renal function gradually increases from birth and reaches adult levels by the second year of life (Rubin 1949), there are no expected age-dependent changes in eGFR in the pediatric population 2 years and older than adults. Additionally, pediatric patients with Fabry disease usually have a normal renal function or may experience renal hyperfiltration (Hopkin 2008); therefore, weight-based dosing regimens, assuming that pediatrics have a normal renal function, were planned for the simulations in pediatric Fabry patients. NONMEM program was used to develop the population PK model of migalastat in adults using first-order conditional estimation with interaction (FOCE-I). Simulations were conducted using NONMEM to obtain plasma concentration-time; all graphical analyses were performed using R; noncompartmental analysis and pharmacokinetic parameters summaries were conducted using Phoenix WinNonlin. Bootstrapping and visual predictive checks (VPC)s were conducted using Perl-speaks-NONMEM (PsN) R packages of popED and mrgsolve were used in the optimal sampling strategy. […] The overall purpose of the model development was to come up with a model for pediatric extrapolation. […] Moreover, pediatric CLT/F values extrapolated from the non-renal model were higher than the overall CLT/F approach, resulting in higher pediatric doses for achieving equivalent exposures with adults which was a less conservative approach. Therefore, the overall CLT/F scaling approach is more conservative and was chosen for the final model, which is shown in Table 6. The estimated parameters from bootstrap (see Table 6) were nearly identical to those estimated from the original dataset. All parameters were estimated with adequate precision.
# [2] = AT1001-020 Stage 1 pharmacokinetics (sparse plasma sampling, LC-MS/MS, popPK); type: in vivo, human
# Experimental: Migalastat levels can be measured via methods known in the art. For example, if measuring migalastat from tissue samples, tissue aliquots may be homogenized (7 μL water per 1 mg tissue) using a homogenizer (e.g., FastPrep-24 from MP Biomedical, Irvine, CA). Microcentrifuge tubes containing 100 μl of the tissue homogenate or 50 μl of plasma may then be spiked with 500 ng/ml 13C d2-AT1001 HCl internal standard (manufactured by MDS Pharma Services). A 600 μl volume of 5 mM HCl in 95/5 MeOH:H2O can then be added and the tubes vortexed for 2 minutes, followed by centrifugation at 21000×g for 10 minutes at room temperature. […] After several wash steps and elution into a clean, 96-well plate, the extracts may be dried down under N2 and reconstituted with mobile phase A. Migalastat levels can then be determined by liquid chromatography-tandem mass spectroscopy (LC-MS/MS) (e.g., LC: Shimadzu; MS/MS: ABSciex API 5500 MS/MS). […] The following precursor ion->product ion transitions may be monitored: mass/charge (m/z) 164.1→m/z 80.1 for migalastat and m/z 167.1→m/z 83.1 for the internal standard. […] The ratio of the area under the curve for migalastat to that of the internal standard is then determined and final concentrations of migalastat in each sample calculated using the linear least squares fit equation applied to the calibration curve. […]
# Plasma samples were analyzed using the LC-MS/MS method. […]
# [3] = tested on: pediatric subjects with Fabry disease and amenable GLA variants; assay: AT1001-020 Stage 1 safety in pediatric subjects (interim analysis)
# Experimental: All safety analyses were performed using the safety population.
# During Stage 1, urinalysis (albumin, protein, specific gravity, pH, and microscopy) was the only laboratory parameter collected at Month 1 and therefore, the only laboratory parameter assessed for the Interim Analysis.
# [4] = Safety Population (N = 9), Stage 1
compound,measurement,setting,value
"OC[C@H]1NC[C@H](O)[C@@H](O)[C@H]1O [migalastat, (2R,3S,4R,5S)-2-(hydroxymethyl) piperdine-3,4,5-triol]","Ka (intercept), Estimate (% RSE)",[1]; Bootstrap,0.256 (8.60%); h^−1
same,"Ka (slope), Estimate (% RSE)",[1]; Bootstrap,0.282 (7.45%);
same,"Lag time, Estimate (% RSE)",[1]; Bootstrap,0.176 (4.52%); h
same,"Typical V2/F, Estimate (% RSE)",[1]; Bootstrap,69.7 (4.8%); L
same,"Typical Q/F, Estimate (% RSE)",[1]; Bootstrap,1.01 (4.59%); L/h
same,"Typical V3/F, Estimate (% RSE)",[1]; Bootstrap,27.5 (11.9%); L
same,"EGFR-related exponential index on CL/F, Estimate (% RSE)",[1]; NONMEM,0.922 (5.64%);
same,"Fractional Change in V2/F in subjects without Fabry disease (decrease in V2/F), Estimate (% RSE)",[1]; NONMEM,−0.306 (12.8%);
same,"Fractional Change in total CL/F in subjects without Fabry disease (decrease in total CL/F), Estimate (% RSE)",[1]; NONMEM,0.150 (24.9%);
same,"Ka (intercept), Estimate (% RSE)",[1]; NONMEM,0.256 (9.41%); h^−1
same,"Ka (slope), Estimate (% RSE)",[1]; NONMEM,0.284 (9.12%);
same,"Lag time, Estimate (% RSE)",[1]; NONMEM,0.175 (4.65%); h
same,"Typical V2/F, Estimate (% RSE)",[1]; NONMEM,70.1 (5.29%); L
same,"Typical Q/F, Estimate (% RSE)",[1]; NONMEM,1.00 (5.17%); L/h
same,"Typical V3/F, Estimate (% RSE)",[1]; NONMEM,27.5 (11.7%); L
same,Average difference in migalastat exposure with subject weight,[1]; body weights between 50 and 170 kg,< 2 fold
same,Time within which the drug is considered fairly fully absorbed,"[1]; oral, regardless of the absorption model chosen",7 to 10 h
same,Cmax levels observed in the pediatric patients versus adults in study AT1001-011,[2]; 123 mg capsule QOD,in line with the Cmax levels observed in adults patients
same,Exposure in adults and adolescents weighing >45 kg (popPK),"[2]; 123 mg capsule q.o.d., adolescent patients (n=9)",comparable
same,Changes in mean values from baseline for urinalysis parameters,[3]; Month 1,no clinically meaningful changes
same,Subjects with urine pH from normal at baseline to high at Month 1,[3]; Safety Population (N = 9),Three
same,Number of subjects discontinued due to TEAEs,[3]; [4],0 n (%)
same,Number of subjects with AEs leading to death,[3]; [4],0 n (%)
same,Number of subjects with TEAEs,[3]; [4],5 (55.6) n (%)
same,Number of subjects with related TEAEs,[3]; [4],1 (11.1) n (%)
same,Number of subjects with treatment-emergent SAEs,[3]; [4],0 n (%)
same,Number of TEAEs,"[3]; Safety Population (N = 9), Stage 1, 123 mg capsule QOD",6 n
same,"Drug eruption, Number of Events","[3]; Safety Population, Stage 1",1 (16.7) n (%)
same,"Drug eruption, Number of Subjects","[3]; Safety Population, Stage 1",1 (11.1) n (%)
same,"Headache, Number of Events","[3]; Safety Population, Stage 1",1 (16.7) n (%)
same,"Headache, Number of Subjects","[3]; Safety Population, Stage 1",1 (11.1) n (%)
same,"Infections and infestations, Number of Events","[3]; Safety Population, Stage 1",4 (66.7) n (%)
same,"Infections and infestations, Number of Subjects","[3]; Safety Population, Stage 1",4 (44.4) n (%)
same,"Nervous system disorders, Number of Events","[3]; Safety Population, Stage 1",1 (16.7) n (%)
same,"Nervous system disorders, Number of Subjects","[3]; Safety Population, Stage 1",1 (11.1) n (%)
same,"Pharyngitis, Number of Events","[3]; Safety Population, Stage 1",1 (16.7) n (%)
same,"Pharyngitis, Number of Subjects","[3]; Safety Population, Stage 1",1 (11.1) n (%)
same,"Skin and subcutaneous tissue disorders, Number of Events","[3]; Safety Population, Stage 1",1 (16.7) n (%)
same,"Skin and subcutaneous tissue disorders, Number of Subjects","[3]; Safety Population, Stage 1",1 (11.1) n (%)
same,"Upper respiratory tract infection, Number of Events","[3]; Safety Population, Stage 1",3 (50.0) n (%)
same,"Upper respiratory tract infection, Number of Subjects","[3]; Safety Population, Stage 1",3 (33.3) n (%)
same,Potentially clinically significant abnormalities in urinalysis parameters,[3]; Stage 1,no potentially clinically significant abnormalities
same,New safety findings,"[3]; Stage 1, 123 mg, pediatric patients aged ≥12 to 16 years",No new safety findings

# Source: patent US20240293387A1, “Methods of Treating Fabry Disease in Pediatric Patients” (Amicus Therapeutics, Inc., priority 2021, published 2024)
